This is an account of results in patent US11370794B2, “Toll-like receptor antagonist compounds and methods of use” (Dynavax Technologies Corporation, priority 2016, dated 2022).

SMILES strings stand for the structures. pIC50: −log10 of the molar value. Where two headings read alike, the source gives them in different places.

One may read the pIC50 as the negative decadic logarithm of the IC50, by convention in mol/L.

One assay has as its target T1, human TLR8 (Homo sapiens, UniProt Q9NR97).
T1 construct: endogenous in cells; host or cells: primary human monocytes (CD14 microbeads) from buffy coats of healthy donors
T1 sequence (Q9NR97 27-1041): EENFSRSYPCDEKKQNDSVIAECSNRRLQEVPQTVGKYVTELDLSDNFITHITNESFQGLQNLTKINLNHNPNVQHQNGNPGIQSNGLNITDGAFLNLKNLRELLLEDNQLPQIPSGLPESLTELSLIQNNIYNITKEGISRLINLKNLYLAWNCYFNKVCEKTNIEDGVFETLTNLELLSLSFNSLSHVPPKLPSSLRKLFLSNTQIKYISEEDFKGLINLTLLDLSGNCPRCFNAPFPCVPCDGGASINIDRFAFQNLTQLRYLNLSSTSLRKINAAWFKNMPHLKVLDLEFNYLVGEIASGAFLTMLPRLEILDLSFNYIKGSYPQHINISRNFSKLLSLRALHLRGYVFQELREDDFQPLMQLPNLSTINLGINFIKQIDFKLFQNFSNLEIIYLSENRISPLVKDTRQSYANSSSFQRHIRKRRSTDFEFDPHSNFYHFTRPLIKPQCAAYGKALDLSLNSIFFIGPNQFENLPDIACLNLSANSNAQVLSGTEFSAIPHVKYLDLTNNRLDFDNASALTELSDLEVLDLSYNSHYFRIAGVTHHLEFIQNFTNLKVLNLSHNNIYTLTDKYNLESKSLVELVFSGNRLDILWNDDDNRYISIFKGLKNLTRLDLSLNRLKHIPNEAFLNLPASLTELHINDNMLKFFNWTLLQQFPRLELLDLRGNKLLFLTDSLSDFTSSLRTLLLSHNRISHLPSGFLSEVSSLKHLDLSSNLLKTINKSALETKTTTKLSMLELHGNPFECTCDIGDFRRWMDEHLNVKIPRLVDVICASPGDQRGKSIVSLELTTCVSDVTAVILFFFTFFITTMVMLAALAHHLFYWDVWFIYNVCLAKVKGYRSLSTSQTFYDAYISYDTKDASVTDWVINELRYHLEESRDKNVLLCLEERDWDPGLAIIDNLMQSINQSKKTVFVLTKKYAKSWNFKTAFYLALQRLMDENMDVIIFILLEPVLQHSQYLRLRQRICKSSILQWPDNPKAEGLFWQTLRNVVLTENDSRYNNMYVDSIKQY
The experiment in a line: Inhibition of human TLR8 in human monocytes (TNF-alpha / IL-1 beta ELISA). It counts as cell-based. Conditions: human monocytes, agonist ORN8L 100 μg/mL, 24 hours. The source says: Example B2—Inhibition of Human TLR8 in Human Monocytes
When placed in cell culture, engagement of TLR8 with an agonist leads to expression and release of cytokines into the media.
Buffy coats from anonymized, healthy human donors. CD14 microbeads (Milteny Cat. No. 130-050-201). TLR8 agonist, (5′-M2UGCUGCUUGUG-/glycerol/-GUGUUCGUCGUM2-5′ with M2=C6-linker, ORN8L, RNA oligonucleotide (Chem Genes Corp.). Human TNF-alpha ELISA kit (Mabtech Cat. No. 3510-1H-20). Human interleukin (IL)-1 beta ELISA kit (Mabtech Cat. No. 3415-1H-20).
Following isolation of monocytes from buffy coats, human monocytes were plated into 96 well plates at approximately 200,000 cells per well. Test compounds were serially diluted and added to the plates. Immediately after adding test compounds, the TLR8 agonist (ORN8L, RNA oligonucleotide) was added to a final concentration of 100 μg/mL. Cells were incubated for 24 hours at 37° C. A portion of the media supernatant was analyzed for the presence of TNF-alpha and/or IL-1 beta using ELISA kits. The amount of TNF-alpha or IL-1 beta produced is a reflection of the amount of TLR8-dependent receptor activity. The IC50 values (the concentration at which 50% of the TLR8-dependent receptor activity is reduced) were calculated based upon the TLR8-dependent receptor activity over a range of different test compound concentrations.
A general note: ELISA stands for enzyme-linked immunosorbent assay.

For the next assay, the target named is T2, human TLR9 (Homo sapiens, UniProt Q9NR96).
T2 construct: endogenous in cells; host or cells: primary human B cells (CD19 microbeads) from buffy coats of healthy donors
T2 sequence (Q9NR96 26-1032): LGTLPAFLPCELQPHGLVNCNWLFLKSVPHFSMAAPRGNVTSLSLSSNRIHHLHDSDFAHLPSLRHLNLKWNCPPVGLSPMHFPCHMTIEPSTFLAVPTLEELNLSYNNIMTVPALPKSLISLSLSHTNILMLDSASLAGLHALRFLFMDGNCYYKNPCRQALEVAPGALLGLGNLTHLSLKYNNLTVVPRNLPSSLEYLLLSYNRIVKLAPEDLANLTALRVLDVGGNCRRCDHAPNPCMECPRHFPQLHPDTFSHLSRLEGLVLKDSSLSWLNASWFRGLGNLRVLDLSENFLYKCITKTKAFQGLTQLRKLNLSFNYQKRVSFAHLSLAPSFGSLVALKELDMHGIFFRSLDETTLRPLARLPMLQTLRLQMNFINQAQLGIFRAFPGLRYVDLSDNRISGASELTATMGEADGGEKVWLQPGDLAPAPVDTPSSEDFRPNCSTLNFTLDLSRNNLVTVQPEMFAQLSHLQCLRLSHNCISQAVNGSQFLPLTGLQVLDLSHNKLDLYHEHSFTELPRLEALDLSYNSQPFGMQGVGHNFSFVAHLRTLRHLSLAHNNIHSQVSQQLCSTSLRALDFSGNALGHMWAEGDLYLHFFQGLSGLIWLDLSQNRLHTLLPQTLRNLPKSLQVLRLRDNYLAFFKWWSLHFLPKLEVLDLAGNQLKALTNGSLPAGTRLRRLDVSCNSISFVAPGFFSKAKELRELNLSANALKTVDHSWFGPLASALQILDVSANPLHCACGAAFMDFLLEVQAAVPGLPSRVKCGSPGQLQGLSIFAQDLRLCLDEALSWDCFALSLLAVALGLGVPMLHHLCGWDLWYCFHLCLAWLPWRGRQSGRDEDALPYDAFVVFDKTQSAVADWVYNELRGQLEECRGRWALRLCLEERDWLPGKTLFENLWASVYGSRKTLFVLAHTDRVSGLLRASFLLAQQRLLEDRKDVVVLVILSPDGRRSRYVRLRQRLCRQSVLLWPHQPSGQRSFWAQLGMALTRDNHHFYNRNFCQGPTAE
The experiment in a line: Inhibition of human TLR9 in human B cells (IL-6 ELISA). It counts as cell-based. Conditions: for pIC50: human B cells, agonist 1018 ISS 1 μM; for inhibits TLR9-dependent responses (in words): summary statement of the description. The procedure: Example B3—Inhibition of Human TLR9 in Human B Cells
When placed in cell culture, engagement of TLR9 with an agonist leads to expression and release of cytokines into the media.
Buffy coats from anonymized, healthy human donors. CD19 microbeads (Miltenyi Cat. No. 130-050-301). TLR9 agonist, 1018 ISS, CpG-containing DNA oligonucleotide. Human interleukin (IL)-6 ELISA kit (Mabtech Cat. No. 3460-1H-20).
Following isolation of […] from buffy coats, human B cells were plated into 96 well plates at approximately 300,000 cells per well. Test compounds were serially diluted and added to the plates. Test compounds were typically assayed using a concentration range from about 0.01 μM to about 10 μM. Certain test compounds were further assayed in an expanded dilution series using a compound concentration range from about 0.001 μM to about 30 μM. Immediately after adding test compounds, the TLR9 agonist (1018 ISS, CpG-containing DNA oligonucleotide) was added to a final concentration of 1 μM. Cells were incubated for 48 hours at 37° C. A portion of the media supernatant was analyzed for the presence of IL-6 using ELISA kits. The amount of IL-6 produced is a reflection of the amount of TLR9-dependent receptor activity. The IC50 values (the concentration at which 50% of the TLR9-dependent receptor activity is reduced) were calculated based upon the TLR9-dependent receptor activity over a range of different test compound concentrations.

The mark [1] stands for this setting: TNF-alpha readout, read-out: Human TLR8 IC50 TNF-a.
The mark [2] stands for this setting: IL-6 readout, 48 hours, range about 0.01 to 10 μM, read-out: Human TLR9 IC50.
[3] abbreviates: IL-1 beta readout, read-out: Human TLR8 IC50 IL-1b.

`Cc1ccc(-n2nc3c(N4CCC(C(=O)NCCCN(C)C)CC4)nnc(C)c3c2-c2ccccc2)cc1` [compound 34, N-(3-(dimethylamino)propyl)-1-(4-methyl-3-phenyl-2-(p-tolyl)-2H-pyrazolo[3,4-d]pyridazin-7-yl)piperidine-4-carboxamide]: the values for the pIC50 at human TLR8 (setting [1]) and on human TLR9 (setting [2]) were no more than 4.70 and 6.60, respectively.

On to `Cc1ccc(-n2nc3c(N4CCC(C(=O)NCCCCCCN(C)C)CC4)nnc(C)c3c2C)cc1` [compound 38, 1-(3,4-dimethyl-2-(p-tolyl)-2H-pyrazolo[3,4-d]pyridazin-7-yl)-N-(6-(dimethylamino)hexyl)piperidine-4-carboxamide], for which the pIC50 at human TLR8 (setting [1]) is no more than 4.70; at human TLR9 (setting [2]), 7.40.

In the case of `Cc1ccc(-n2cc3cnnc(N4CCC(C(=O)NC5CN(C)C5)CC4)c3n2)cc1` [compound 62, N-(1-methylazetidin-3-yl)-1-(2-(p-tolyl)-2H-pyrazolo[3,4-d]pyridazin-7-yl)piperidine-4-carboxamide], the figures for the pIC50 at human TLR8 (setting [1]) and at human TLR9 (setting [2]) were 5.42 and 7.68, respectively.

With `Cc1ccc(-n2nc3c(N4CCC(C(=O)NCCCN5CCc6ccccc65)CC4)nnc(C)c3c2C)cc1` [2-4], the pIC50 at human TLR8 (setting [3]), at human TLR8 (setting [1]) and at human TLR9 (setting [2]) was less than 5.00 each time.

Regarding `CCN(CC)CCCNC(=O)C1CCN(c2nnc(C)c3c(C)n(-c4ccccc4)nc23)CC1` [7x, N-(3-(diethylamino)propyl)-1-(3,4-dimethyl-2-phenyl-2H-pyrazolo[3,4-d]pyridazin-7-yl)piperidine-4-carboxamide], the pIC50 is less than 5.00 on human TLR8 (setting [3]), less than 5.00 at human TLR8 (setting [1]) and 6.43 at human TLR9 (setting [2]).

`Cc1ccc(-n2nc3c(N4CCC(C(=O)N5CCC(N6CCOCC6)CC5)CC4)nnc(C)c3c2C)cc1` [compound 69, (1-(3,4-dimethyl-2-(p-tolyl)-2H-pyrazolo[3,4-d]pyridazin-7-yl)piperidin-4-yl)(4-morpholinopiperidin-1-yl)methanone]: the results for the negative logarithm of the IC50 (pIC50) on human TLR8 (setting [1]) and on human TLR9 (setting [2]) were 5.42 and 6.60, respectively.

`CCN(CC)CCCNC(=O)C1CCN(c2nnc(C)c3c(C)n(-c4ccc(OC)cc4)nc23)CC1` [9x, N-(3-(diethylamino)propyl)-1-(2-(4-methoxyphenyl)-3,4-dimethyl-2H-pyrazolo[3,4-d]pyridazin-7-yl)piperidine-4-carboxamide]: the negative logarithm of the IC50 (pIC50) is less than 5.00 at human TLR8 (setting [3]), less than 5.00 on human TLR8 (setting [1]) and 7.40 on human TLR9 (setting [2]). Moreover, at human TLR9, the “inhibits TLR9-dependent responses (in words)” value was “inhibit”.

Consider `Cc1ccc(-n2nc3c(N4CCC(C(=O)NCCNC(C)C)CC4)nnc(C)c3c2C)cc1` [compound 8, 1-(3,4-dimethyl-2-(p-tolyl)-2H-pyrazolo[3,4-d]pyridazin-7-yl)-N-(2-(isopropylamino)ethyl)piperidine-4-carboxamide], for which the pIC50 was less than 5.00 at human TLR8 (setting [3]), less than 5.00 at human TLR8 (setting [1]) and 6.51 on human TLR9 (setting [2]).

In the case of `Cc1ccc(-n2nc3c(N4CCC(C(=O)NCCCN5CCCC5)CC4)nnc(C)c3c2C)cc1` [15x, 1-(3,4-dimethyl-2-(p-tolyl)-2H-pyrazolo[3,4-d]pyridazin-7-yl)-N-(3-(pyrrolidin-1-yl)propyl)piperidine-4-carboxamide], the pIC50 at human TLR8 (setting [1]) was 5.34; on human TLR9 (setting [2]), 6.39.

As for `CCN(CC)C1CCN(C(=O)C2CCN(c3nnc(C)c4c(C)n(-c5ccc(C)cc5)nc34)CC2)CC1` [compound 43, (4-(diethylamino)piperidin-1-yl)(1-(3,4-dimethyl-2-(p-tolyl)-2H-pyrazolo[3,4-d]pyridazin-7-yl)piperidin-4-yl)methanone], the pIC50 at human TLR8 (setting [1]) was no more than 4.70; on human TLR9 (IL-6, 48 hours, expanded dilution series about 0.001 to 30 μM, read-out: Human TLR9 IC50, expanded dilution series), 7.89; on human TLR9 (setting [2]), 9.00. Besides, on human TLR9, the “inhibits TLR9-dependent responses (in words)” value is reported as “inhibit”.

For `Cc1ccc(-n2nc3c(N4CCC(C(=O)N[C@H]5C[C@H](N(C)C)C5)CC4)nnc(C)c3c2C)cc1` [Compound No. 12a, 1-(3,4-dimethyl-2-(p-tolyl)-2H-pyrazolo[3,4-d]pyridazin-7-yl)-N-((1r,3r)-3-(dimethylamino)cyclobutyl)piperidine-4-carboxamide], the pIC50 is less than 5.00 on human TLR8 (setting [3]), less than 5.00 at human TLR8 (setting [1]) and 7.15 on human TLR9 (setting [2]).

For the molecule `Cc1ccc(-n2nc3c(N4CCC(C(=O)NCCN5CCOCC5)CC4)nnc(C)c3c2C)cc1` [17x, 1-(3,4-dimethyl-2-(p-tolyl)-2H-pyrazolo[3,4-d]pyridazin-7-yl)-N-(2-morpholinoethyl)piperidine-4-carboxamide], the values for the negative logarithm of the IC50 (pIC50) at human TLR8 (setting [1]) and at human TLR9 (setting [2]) were no more than 4.70 and 7.77, respectively. Besides, on human TLR9, the “inhibits TLR9-dependent responses (in words)” value was “inhibit”.

With `Cc1ccc(-n2nc3c(N4CCC(C(=O)NCCCCCc5ccccc5)CC4)nnc(C)c3c2C)cc1` [2-12], the pIC50 is less than 5.00 on human TLR8 (setting [3]), less than 5.00 at human TLR8 (setting [1]) and 6.37 at human TLR9 (setting [2]).
